According to patent US11007269B2, “P53 degradation inducing molecule and pharmaceutical composition” (Tokyo University of Science Foundation, priority 2016, dated 2021):

Assays:
MDM2 protein = molecular target: T1, MDM2 protein (Mus musculus, UniProt P23804); assay: Western blot of MDM2 protein in liver of mice given the compound; type: in vivo; conditions: C57BL/6J mice, 48 hours after administration
T1 construct: from tissue; host or cells: liver of C57BL/6J wild-type mice
Experimental: (§1) In Example 4, degradation (knockdown) of the endogenous wild-type p53 protein and MDM2 protein in mouse individuals in which TIBC-CANDDY_MLN had been administered was evaluated by Western blot analysis.
(§2) TIBC-CANDDY_MLN was dissolved in DMSO immediately before administration, and then dissolved in corn oil (Code No. 25606-55, Nacalai Tesque) so that the concentration of DMSO was 10 vol %, and then a dose of 50 mg/kg body weight or 100 mg/kg body weight was administered intraperitoneally to C57BL/6J wild-type mice (7 to 8 weeks old, male) (CLEA Japan, Inc.) (n=3). As a control, an injection carrier (corn oil containing 10 vol % DMSO) was used. The mice were kept under an environment of ad libitum access to food and water. […]
(§3) The frozen tissue (0.04 g) was triturated, and then 980 μL of 1×TKM tissue lysis buffer (50 mM triethanolamine (pH 7.8), 50 mM KCl, 5 mM MgCl2, 0.25 M sucrose, 1 mM PMSF, protein inhibitors cocktail-EDTA free (Code No. 03969-21, Nacalai Tesque), 1 mM DTT, Recombinant RNase inhibitor 5 μl/mL (40 U/μl, Cat No. 2313A, Lot No. K8402DA, TAKARA Bio)) was added, and dissolved by rotation for 15 minutes (1 rpm, 25° C.). […] The concentration of proteins in the tissue extract was quantified with a spectrophotometer with the tissue extract that had been diluted 20 times using DEPC-treated water. […]

[1] = molecular target: T2, endogenous wild-type p53 protein (Mus musculus, UniProt P02340); assay: Western blot of wild-type p53 protein in liver of mice given the compound; type: in vivo; conditions: C57BL/6J mice, 48 hours after administration
T2 construct: from tissue; host or cells: liver of C57BL/6J wild-type mice
T2 sequence (P02340 whole entry): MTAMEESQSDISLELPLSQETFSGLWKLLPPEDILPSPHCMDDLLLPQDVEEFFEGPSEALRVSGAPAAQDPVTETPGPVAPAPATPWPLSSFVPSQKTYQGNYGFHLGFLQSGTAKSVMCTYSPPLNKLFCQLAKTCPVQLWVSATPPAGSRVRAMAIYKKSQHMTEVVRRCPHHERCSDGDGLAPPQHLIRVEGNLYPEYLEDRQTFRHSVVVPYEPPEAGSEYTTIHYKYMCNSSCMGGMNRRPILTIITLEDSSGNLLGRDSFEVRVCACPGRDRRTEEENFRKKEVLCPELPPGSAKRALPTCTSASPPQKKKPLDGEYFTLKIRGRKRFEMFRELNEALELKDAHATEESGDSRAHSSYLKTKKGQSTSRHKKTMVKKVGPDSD
Experimental: as §1, §2, §3

[2] = 50 mg/kg body weight intraperitoneally
[3] = 100 mg/kg body weight intraperitoneally

T1 sequence (P23804 whole entry): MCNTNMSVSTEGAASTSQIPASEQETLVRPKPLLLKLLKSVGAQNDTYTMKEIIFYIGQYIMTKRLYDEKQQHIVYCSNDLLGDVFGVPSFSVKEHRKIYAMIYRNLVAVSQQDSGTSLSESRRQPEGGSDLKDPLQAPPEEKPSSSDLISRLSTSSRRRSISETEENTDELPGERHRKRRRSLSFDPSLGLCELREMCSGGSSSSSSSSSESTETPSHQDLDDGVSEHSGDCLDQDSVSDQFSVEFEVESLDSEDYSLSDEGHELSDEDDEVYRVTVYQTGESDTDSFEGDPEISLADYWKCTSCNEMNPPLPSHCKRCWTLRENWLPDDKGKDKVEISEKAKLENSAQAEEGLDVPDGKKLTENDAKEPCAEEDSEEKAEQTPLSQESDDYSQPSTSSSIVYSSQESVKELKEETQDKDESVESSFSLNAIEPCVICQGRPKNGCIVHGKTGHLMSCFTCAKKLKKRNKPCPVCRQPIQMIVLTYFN

CC(C)C[C@H](NC(=O)CNC(=O)c1cc(Cl)ccc1Cl)C(=O)NCCCCCCC(=O)Nc1ccc(C(=O)/C=C/c2ccc(I)cc2)cc1 [TIBC-CANDDY_MLN]
reduced: amount of MDM2 protein in the liver (MDM2 protein; [2]) | amount of MDM2 protein in the liver (MDM2 protein; [3]) | amount of endogenous wild-type p53 protein in the liver [1, 2] | amount of endogenous wild-type p53 protein in the liver [1, 3]
